Reference: patent US20180099931A1 (AbbVie S.à.r.l., priority 2016, published 2018)
Read-outs that look alike come from different tables or passages of the source.

Biological target: T1, F508delCFTR (Homo sapiens, UniProt P13569, DEL508-508)
T1 construct: expressed in transfected cells; host or cells: CFBE41o- human lung-derived epithelial cells (CFBE4lo-F508delCFTR-HRP), doxycycline-inducible
Test: Cell Surface Expression-Horse Radish Peroxidase (CSE-HRP) Assay;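 for Maximum % activity (with co-corrector): co-corrector and positive control are both the same reference corrector at 2 µM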;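 for Maximum % activity (without co-corrector): percent of the 2 µM on-plate positive control corrector response above DMSO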
Format: cell-based
Details: for Emax / Maximum % activity (with co-corrector) / Maximum % activity (without co-corrector): maximum at any tested concentration, normalized to on-plate positive control; for Emax: read-out: Maximum % activity (without co-corrector)

[1] = test compound without co-corrector
[2] = test compound without co-corrector, read-out: EC50 (without co-corrector)
[3] = with co-corrector (2 μM of 3-[(2R,4R)-4-({[1-(2,2-difluoro-1,3-benzodioxol-5-yl)cyclopropyl]carbonyl}amino)-7-methoxy-3,4-dihydro-2H-chromen-2-yl]benzoic acid)
[4] = with co-corrector (2 μM of 3-[(2R,4R)-4-({[1-(2,2-difluoro-1,3-benzodioxol-5-yl)cyclopropyl]carbonyl}amino)-7-methoxy-3,4-dihydro-2H-chromen-2-yl]benzoic acid), read-out: EC50 (with co-corrector)
[5] = CSE-HRP, test compound without co-corrector, read-out: EC50 (without co-corrector)
[6] = CSE-HRP, with co-corrector (2 μM of 3-[(2R,4R)-4-({[1-(2,2-difluoro-1,3-benzodioxol-5-yl)cyclopropyl]carbonyl}amino)-7-methoxy-3,4-dihydro-2H-chromen-2-yl]benzoic acid), read-out: EC50 (with co-corrector)
[7] = CSE-HRP, with co-corrector (2 μM)

T1 sequence (P13569 with tags, fused parts or gaps DEL508-508): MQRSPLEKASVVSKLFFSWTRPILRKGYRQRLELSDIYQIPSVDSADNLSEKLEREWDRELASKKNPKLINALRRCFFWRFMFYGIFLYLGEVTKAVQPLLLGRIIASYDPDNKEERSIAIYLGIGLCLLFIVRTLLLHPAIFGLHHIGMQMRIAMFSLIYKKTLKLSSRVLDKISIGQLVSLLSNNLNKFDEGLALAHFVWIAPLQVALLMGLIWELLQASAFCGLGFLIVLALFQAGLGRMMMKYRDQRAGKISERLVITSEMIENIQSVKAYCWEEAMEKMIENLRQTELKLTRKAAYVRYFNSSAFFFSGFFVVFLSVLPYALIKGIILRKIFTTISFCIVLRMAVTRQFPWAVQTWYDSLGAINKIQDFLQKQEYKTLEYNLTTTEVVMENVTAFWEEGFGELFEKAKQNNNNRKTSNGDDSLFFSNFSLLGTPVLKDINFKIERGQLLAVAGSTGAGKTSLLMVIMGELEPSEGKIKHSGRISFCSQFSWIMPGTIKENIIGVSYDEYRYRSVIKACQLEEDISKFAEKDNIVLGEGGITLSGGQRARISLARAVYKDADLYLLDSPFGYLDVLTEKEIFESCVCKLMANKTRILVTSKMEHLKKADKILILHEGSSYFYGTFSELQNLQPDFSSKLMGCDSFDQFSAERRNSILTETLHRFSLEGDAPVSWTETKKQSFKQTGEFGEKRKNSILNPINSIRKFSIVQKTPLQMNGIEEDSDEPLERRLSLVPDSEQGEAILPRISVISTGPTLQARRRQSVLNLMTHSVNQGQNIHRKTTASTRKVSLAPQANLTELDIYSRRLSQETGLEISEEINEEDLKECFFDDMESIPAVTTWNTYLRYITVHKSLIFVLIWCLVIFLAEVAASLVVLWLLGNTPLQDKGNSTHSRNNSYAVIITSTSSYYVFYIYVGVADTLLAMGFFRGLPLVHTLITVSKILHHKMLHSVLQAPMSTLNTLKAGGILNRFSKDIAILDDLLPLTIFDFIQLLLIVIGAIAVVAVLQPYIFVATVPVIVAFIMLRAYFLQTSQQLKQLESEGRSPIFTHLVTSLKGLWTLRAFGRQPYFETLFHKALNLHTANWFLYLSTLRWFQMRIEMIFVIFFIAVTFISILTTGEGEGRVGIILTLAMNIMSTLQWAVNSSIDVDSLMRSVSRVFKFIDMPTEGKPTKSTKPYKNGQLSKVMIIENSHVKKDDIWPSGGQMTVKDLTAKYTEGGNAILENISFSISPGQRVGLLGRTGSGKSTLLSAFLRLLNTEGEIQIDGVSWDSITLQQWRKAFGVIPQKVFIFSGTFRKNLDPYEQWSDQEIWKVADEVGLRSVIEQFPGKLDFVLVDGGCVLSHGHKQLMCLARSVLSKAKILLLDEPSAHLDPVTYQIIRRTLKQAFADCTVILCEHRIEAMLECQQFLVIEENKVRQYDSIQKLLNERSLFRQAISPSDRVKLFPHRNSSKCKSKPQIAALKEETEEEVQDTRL

Row | Emax [1] | EC50 [2] | Maximum % activity (with co-corrector) [3] | EC50 [4] | Maximum % activity (with co-corrector) (with co-corrector (2 μM)) | Emax (without co-corrector) | EC50 [5] | EC50 [6] | Maximum % activity (with co-corrector) [7] | Emax (CSE-HRP, without co-corrector) | Maximum % activity (without co-corrector) [1] | SMILES
1 | 100 to 200% | < 1000 nM | +++ (≥350) | < 1000 nM |  |  |  |  |  |  |  | COc1ccc(C(C)(C)C)cc1CN[C@H]1[C@H](C(C)(C)C)[C@@H](C(=O)O)N(C(=O)[C@@H]2[C@@H](C(F)(F)F)[C@@H]3CC[C@H]2O3)[C@H]1c1ccccc1OC(F)F (relative stereo) [II-507]
2 |  | < 1000 nM |  | < 1000 nM | +++ (≥350) | < 100% |  |  |  |  |  | CC(C)c1ccccc1CN[C@@H]1[C@@H](C(C)(C)C)[C@H](C(=O)O)N(C(=O)C2CCCCC2)[C@@H]1c1ccccc1 (racemic) [Example I-35]
3 |  |  |  |  |  |  | 1000 to 10000 nM | 1000 to 10000 nM | +++ (≥350) | > 200% |  | COc1ccc(C(C)(C)C)cc1CN[C@H]1[C@H](C(C)(C)C)[C@@H](C(=O)O)N(C(=O)c2c(C)nn(-c3ccccc3)c2C)[C@H]1c1ccccc1 [II-229]
4 |  |  |  |  |  |  | 1000 to 10000 nM | 1000 to 10000 nM | +++ (≥350) | 100 to 200% |  | COc1ccc(Br)cc1CN[C@H]1[C@H](C(C)(C)C)[C@@H](C(=O)O)N(C(=O)C2CCCCC2)[C@H]1c1ccccc1F [II-262]
5 |  | 1000 to 10000 nM | +++ (≥350) | 1000 to 10000 nM |  |  |  |  |  |  | ++ (≥100 and <200) | COc1ccc(C(C)(C)C)cc1CN[C@H]1[C@H](C(C)(C)C)[C@@H](C(=O)O)N(C(=O)C2CCc3cc(F)ccc3O2)[C@H]1c1cccnc1N(C)C (stereo partly shown) [II-482]
6 |  | > 10000 nM |  | 1000 to 10000 nM | ++ (≥150 and <350) | < 100% |  |  |  |  |  | COc1cc(N[C@H]2[C@H](C(C)(C)C)[C@@H](C(=O)O)N(C(=O)C3CCCCC3)[C@H]2c2ccccc2)nc(OC)n1 (racemic) [Example I-9]
7 | < 100% | 1000 to 10000 nM | ++ (≥150 and <350) | 1000 to 10000 nM |  |  |  |  |  |  |  | Cc1cc(C(F)(F)F)cc(N[C@H]2[C@H](C(C)(C)C)[C@@H](C(=O)O)N(C(=O)C3CCCCC3C(F)(F)F)[C@H]2c2cccnc2N(C)C)n1 (stereo partly shown) [II-502]
8 |  |  |  |  |  |  | 1000 to 10000 nM | 1000 to 10000 nM | +++ (≥350) | 100 to 200% |  | COc1cc(Cl)ccc1CN[C@H]1[C@H](C(C)(C)C)[C@@H](C(=O)O)N(C(=O)C2CCCCC2)[C@H]1c1cccnc1C [II-96]
9 | 100 to 200% | < 1000 nM | +++ (≥350) | < 1000 nM |  |  |  |  |  |  |  | COc1ncc(-c2ccc(F)cc2F)cc1CN[C@H]1[C@H](C(C)(C)C)[C@@H](C(=O)O)N(C(=O)C2CCCCC2)[C@H]1c1cccnc1N(C)C [II-406]
10 |  | 1000 to 10000 nM |  | 1000 to 10000 nM | +++ (≥350) | 100 to 200% |  |  |  |  |  | COc1ccc(C(C)(C)C)cc1CN[C@H]1[C@H](C(C)(C)C)[C@@H](C(=O)O)N(S(=O)(=O)c2ccccc2)[C@H]1c1ccccc1 [Example 15, (2S,3S,4S,5S)-1-(benzenesulfonyl)-3-tert-butyl-4-{[(5-tert-butyl-2-methoxyphenyl)methyl]amino}-5-phenylpyrrolidine-2-carboxylic acid]
11 |  |  |  |  |  |  | 1000 to 10000 nM | < 1000 nM | +++ (≥350) | 100 to 200% |  | COc1ncc(C(F)(F)F)cc1CN[C@H]1[C@H](C(C)(C)C)[C@@H](C(=O)O)N(C(=O)[C@@H]2CCCO2)[C@H]1c1ccccc1Br [Example I-292]
12 |  | 1000 to 10000 nM |  | < 1000 nM | +++ (≥350) | > 200% |  |  |  |  |  | COc1ccc(C(F)(F)F)cc1CN[C@H]1[C@H](C(C)(C)C)[C@@H](C(=O)O)N(C(=O)[C@H](OC)c2ccccc2)[C@H]1c1ccccc1 [Example I-20]
13 |  | 1000 to 10000 nM |  | 1000 to 10000 nM | +++ (≥350) | 100 to 200% |  |  |  |  |  | COc1nc(C(C)(C)C)ncc1CN[C@H]1[C@H](C(C)(C)C)[C@@H](C(=O)O)N(C(=O)C2CCCCC2)[C@H]1c1ccccc1 [Example I-207]
14 | > 200% | 1000 to 10000 nM | +++ (≥350) | < 1000 nM |  |  |  |  |  |  |  | COc1ccc(C(C)(C)C)cc1CN[C@H]1[C@H](C(C)(C)C)[C@@H](C(=O)O)N(C(=O)C(Oc2ccccc2C)C(C)C)[C@H]1c1ccccc1 (stereo partly shown) [II-415]
15 |  | 1000 to 10000 nM |  | 1000 to 10000 nM | +++ (≥350) | 100 to 200% |  |  |  |  |  | COc1ccc(-c2sc(C)nc2C)cc1CN[C@H]1[C@H](C(C)(C)C)[C@@H](C(=O)O)N(C(=O)C2CCCCC2)[C@H]1c1ccccc1 [Example I-127]
16 |  |  |  |  |  |  | 1000 to 10000 nM | 1000 to 10000 nM | +++ (≥350) | 100 to 200% |  | COc1ccc(-c2ccccc2)nc1CN[C@H]1[C@H](C(C)(C)C)[C@@H](C(=O)O)N(C(=O)C2CCCCC2)[C@H]1c1ccccc1 [II-296]
17 | < 100% | > 10000 nM | ++ (≥150 and <350) | 1000 to 10000 nM |  |  |  |  |  |  |  | COCCS(=O)(=O)NC(=O)[C@H]1[C@H](C(C)(C)C)[C@@H](Nc2cc(C(F)(F)F)cc(C)n2)[C@@H](c2ccccc2)N1C(=O)C1CCCCC1 (racemic) [Example III-49, rac-(2R,3R,4R,5R)-3-(tert-butyl)-1-(cyclohexanecarbonyl)-N-((2-methoxyethyl)sulfonyl)-4-((6-methyl-4-(trifluoromethyl)pyridin-2-yl)amino)-5-phenylpyrrolidine-2-carboxamide]
18 | 100 to 200% | 1000 to 10000 nM | +++ (≥350) | 1000 to 10000 nM |  |  |  |  |  |  |  | COc1cc2ccccc2cc1CN[C@@H]1[C@H](C(C)(C)C)[C@@H](C(=O)O)N(C(=O)OC(C)C)[C@H]1c1ccccc1 [II-554]
19 |  |  |  |  |  |  | < 1000 nM | < 1000 nM | +++ (≥350) | 100 to 200% |  | CC(C)(C)[C@H]1[C@H](Nc2cc(C(F)(F)F)cc(C(F)(F)F)c2)[C@H](c2ccccc2)N(C(=O)C2CCCCC2)[C@@H]1C(=O)O [II-148]
20 | < 100% | > 10000 nM |  | 1000 to 10000 nM | ++ (≥150 and <350) |  |  |  |  |  |  | CC(C)(C)[C@H]1[C@H](NCc2ccc3occc3c2)[C@H](c2ccccc2)N(C(=O)C2CCCCC2)[C@@H]1C(=O)O [III-135]
21 |  |  |  |  |  |  | < 1000 nM | < 1000 nM | +++ (≥350) | > 200% |  | COc1ccc(C2CCCCC2)cc1CN[C@H]1[C@H](C(C)(C)OC)[C@@H](C(=O)O)N(C(=O)C2CCCCC2)[C@H]1c1ccccc1 [II-257]
22 | > 200% | < 1000 nM |  | < 1000 nM | +++ (≥350) |  |  |  |  |  |  | COc1ccc(C(C)(C)C)cc1CN[C@H]1[C@H](C(C)(C)C)[C@@H](C(=O)O)N(C(=O)C2CCCCC2C)[C@H]1c1ccccc1 (stereo partly shown) [III-195]
23 |  | 1000 to 10000 nM | +++ (≥350) | 1000 to 10000 nM |  |  |  |  |  |  | ++ (≥100 and <200) | COc1ccc(C(C)(C)C)cc1CN[C@H]1[C@H](C(C)(C)C)[C@@H](C(=O)O)N(C(=O)C2Cc3ccccc3CO2)[C@H]1c1cccnc1N(C)C (single isomer, unassigned) [II-481]
24 |  | 1000 to 10000 nM |  | 1000 to 10000 nM | ++ (≥150 and <350) | < 100% |  |  |  |  |  | CC(C)(C)[C@H]1[C@H](NCc2cc3ccccc3o2)[C@H](c2ccccc2)N(C(=O)C2CCCCC2)[C@@H]1C(=O)O [Example I-46]
25 | > 200% | < 1000 nM |  | < 1000 nM | +++ (≥350) |  |  |  |  |  |  | COc1ccc(C(C)(C)C)cc1CN[C@H]1[C@H](C(C)(C)C)[C@@H](C(=O)O)N(C(=O)C2CCCC(C)C2)[C@H]1c1ccccc1 (stereo partly shown) [III-175]
